ChEMBL document CHEMBL1201862, “PubChem BioAssay data set” (2004)
The source made the active and inactive calls.

What was measured:
[1] = molecular target: T1, Sphingosine 1-phosphate receptor 4 (Homo sapiens, UniProt O95977); assay: Fluorescence dose response cell-based high throughput screening assay for antagonists of the Sphingosine 1-Phosphate Receptor 4 (S1P4). [Related pubchem assays: 1524 (Confirmation in triplicates.), 1510 (Primary screen.)]; type: functional
T1 sequence (O95977 whole entry): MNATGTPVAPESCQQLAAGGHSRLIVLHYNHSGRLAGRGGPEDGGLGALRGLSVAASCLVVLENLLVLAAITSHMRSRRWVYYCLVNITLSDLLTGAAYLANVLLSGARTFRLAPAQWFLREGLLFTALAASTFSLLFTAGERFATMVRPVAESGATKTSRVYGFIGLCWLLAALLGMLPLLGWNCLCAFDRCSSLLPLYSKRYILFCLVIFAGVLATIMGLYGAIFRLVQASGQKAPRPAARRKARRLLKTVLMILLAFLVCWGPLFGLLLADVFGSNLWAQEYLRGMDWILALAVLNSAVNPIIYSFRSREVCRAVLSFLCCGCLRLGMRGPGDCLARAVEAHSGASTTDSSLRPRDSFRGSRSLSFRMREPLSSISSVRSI

cells = type: functional
[2] = molecular target: T2, High affinity choline transporter 1 (Homo sapiens, UniProt Q9GZV3); assay: CHT inhibitors, dose response, cell-based, 5-point CRC, membrane potential dye (AID 504840); type: functional
T2 sequence (Q9GZV3 whole entry): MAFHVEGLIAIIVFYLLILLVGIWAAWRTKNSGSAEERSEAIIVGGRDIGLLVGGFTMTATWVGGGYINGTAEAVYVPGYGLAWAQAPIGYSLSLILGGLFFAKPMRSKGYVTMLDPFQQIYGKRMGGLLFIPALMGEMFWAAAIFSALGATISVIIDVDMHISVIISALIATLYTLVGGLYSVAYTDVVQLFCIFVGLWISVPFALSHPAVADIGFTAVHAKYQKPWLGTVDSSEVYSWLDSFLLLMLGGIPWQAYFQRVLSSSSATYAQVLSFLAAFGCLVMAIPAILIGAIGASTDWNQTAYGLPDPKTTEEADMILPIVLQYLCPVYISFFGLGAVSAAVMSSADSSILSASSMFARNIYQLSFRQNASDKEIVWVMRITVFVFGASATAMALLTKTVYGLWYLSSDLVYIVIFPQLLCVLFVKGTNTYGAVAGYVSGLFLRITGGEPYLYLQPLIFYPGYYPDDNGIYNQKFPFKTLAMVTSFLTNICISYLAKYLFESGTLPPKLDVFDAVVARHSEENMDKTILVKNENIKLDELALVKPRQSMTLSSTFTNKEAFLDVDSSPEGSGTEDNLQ

[3] = inhibitors of firefly luciferase expression or activity, dose response, H4 neuroglioma cells, luminescence (AID 1990); type: functional, cell-based
[4] = molecular target: T3, Zinc finger protein mex-5 (Caenorhabditis elegans, UniProt Q9XUB2); assay: MEX-5/TCR-2 RNA interaction inhibitors, dose response, biochemical, C. elegans, fluorescence polarization (AID 1960)
T3 sequence (Q9XUB2 whole entry): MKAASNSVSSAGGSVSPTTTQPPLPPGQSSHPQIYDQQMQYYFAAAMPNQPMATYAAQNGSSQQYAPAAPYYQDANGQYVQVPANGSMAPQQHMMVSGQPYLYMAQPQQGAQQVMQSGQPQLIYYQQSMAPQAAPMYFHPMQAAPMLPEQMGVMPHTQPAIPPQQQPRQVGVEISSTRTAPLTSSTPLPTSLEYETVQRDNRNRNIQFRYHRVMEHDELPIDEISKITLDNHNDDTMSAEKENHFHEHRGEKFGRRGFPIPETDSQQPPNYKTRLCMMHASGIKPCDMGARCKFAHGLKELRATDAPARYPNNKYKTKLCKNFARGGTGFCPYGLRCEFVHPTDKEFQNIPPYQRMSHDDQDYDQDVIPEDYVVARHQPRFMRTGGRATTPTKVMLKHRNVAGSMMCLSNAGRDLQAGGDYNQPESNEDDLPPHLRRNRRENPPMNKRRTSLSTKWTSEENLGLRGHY

[5] = molecular target: T4, 1-phosphatidylinositol 4,5-bisphosphate phosphodiesterase beta-3 (Homo sapiens, UniProt Q01970); assay: Fluorescence-based biochemical high throughput dose response assay to identify inhibitors of phospholipase C isozymes (PLC-B3).
T4 sequence (Q01970 whole entry): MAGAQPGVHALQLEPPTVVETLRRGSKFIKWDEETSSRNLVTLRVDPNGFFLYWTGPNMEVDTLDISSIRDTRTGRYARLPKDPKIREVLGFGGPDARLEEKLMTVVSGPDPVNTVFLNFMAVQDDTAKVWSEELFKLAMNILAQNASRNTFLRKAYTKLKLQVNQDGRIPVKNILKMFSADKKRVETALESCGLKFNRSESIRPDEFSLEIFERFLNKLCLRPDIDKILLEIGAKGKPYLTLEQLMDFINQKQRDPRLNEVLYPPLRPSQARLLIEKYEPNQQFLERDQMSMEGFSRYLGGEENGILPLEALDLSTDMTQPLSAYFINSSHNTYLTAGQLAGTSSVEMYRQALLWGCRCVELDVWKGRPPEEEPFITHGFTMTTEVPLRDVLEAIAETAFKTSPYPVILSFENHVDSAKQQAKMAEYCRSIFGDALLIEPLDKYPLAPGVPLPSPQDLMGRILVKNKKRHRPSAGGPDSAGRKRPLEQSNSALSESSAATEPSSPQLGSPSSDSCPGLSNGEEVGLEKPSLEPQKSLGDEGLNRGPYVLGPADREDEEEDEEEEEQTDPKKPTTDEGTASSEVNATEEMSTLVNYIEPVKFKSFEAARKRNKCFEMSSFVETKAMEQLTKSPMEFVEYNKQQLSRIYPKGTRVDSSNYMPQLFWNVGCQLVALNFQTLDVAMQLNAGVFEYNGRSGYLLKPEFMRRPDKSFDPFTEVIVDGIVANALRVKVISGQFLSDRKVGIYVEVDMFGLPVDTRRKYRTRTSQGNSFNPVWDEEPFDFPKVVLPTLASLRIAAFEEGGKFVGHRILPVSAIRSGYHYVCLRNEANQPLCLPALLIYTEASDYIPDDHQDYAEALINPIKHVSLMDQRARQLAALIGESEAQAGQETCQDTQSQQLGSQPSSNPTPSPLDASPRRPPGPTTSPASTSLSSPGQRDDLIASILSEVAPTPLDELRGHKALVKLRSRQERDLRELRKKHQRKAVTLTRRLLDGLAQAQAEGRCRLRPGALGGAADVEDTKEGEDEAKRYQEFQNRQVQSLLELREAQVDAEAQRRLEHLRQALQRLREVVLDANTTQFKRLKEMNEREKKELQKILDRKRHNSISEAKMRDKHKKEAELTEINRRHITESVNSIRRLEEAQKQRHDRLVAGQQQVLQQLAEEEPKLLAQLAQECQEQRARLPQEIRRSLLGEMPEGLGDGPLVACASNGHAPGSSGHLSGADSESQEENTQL

[6] = molecular target: Mitogen-activated protein kinase 8 (Homo sapiens, UniProt P45983); type: functional;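 note: value comes from one member of a kinome-wide kinase profiling panel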
Mitogen-activated protein kinase 8, sequence (P45983 whole entry): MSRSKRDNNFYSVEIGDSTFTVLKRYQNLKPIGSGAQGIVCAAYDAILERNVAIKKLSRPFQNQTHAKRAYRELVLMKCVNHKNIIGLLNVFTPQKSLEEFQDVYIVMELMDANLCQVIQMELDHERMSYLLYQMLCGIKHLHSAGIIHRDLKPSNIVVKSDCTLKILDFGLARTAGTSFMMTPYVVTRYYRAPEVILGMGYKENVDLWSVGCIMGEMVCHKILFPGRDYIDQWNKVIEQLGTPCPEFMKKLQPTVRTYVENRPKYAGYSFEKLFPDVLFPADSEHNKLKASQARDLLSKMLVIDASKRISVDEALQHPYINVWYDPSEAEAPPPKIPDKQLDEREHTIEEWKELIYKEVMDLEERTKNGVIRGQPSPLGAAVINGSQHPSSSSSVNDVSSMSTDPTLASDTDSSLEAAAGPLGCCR

COC(=O)CCS(=O)(=O)c1nc(-c2ccccc2)cc(C(F)(F)F)n1
IC50 [1]: 1.34 µM (active) | IC50 (cells): 4.78 µM (active)

O=C(O)c1ccc(NC2=C(Cl)C(=O)c3ccccc3C2=O)cc1
IC50 [2]: 14.5 µM (active)

O=C(O)c1ccc2c3c(ncnc13)-c1ccccc1C2=O
EC50 [3]: 2.48 µM (active) | EC50 [4]: 31.9 µM (active)

CCOC(=O)c1c2c(n(Cc3ccccc3)c1C)C(=O)C(=O)c1ccccc1-2
IC50 [5]: > 123 µM (inactive)

Cc1ccc2nccc(NC(=O)Nc3cccc(C(F)(F)F)n3)c2c1
Ki [6]: > 3.16 µM (inactive)
